Values quoted from earlier work in patent US4681764A, “Porous and spherical carbonaceous product” (Kureha Kagaku Kogyo Kabushiki Kaisha, priority 1979, dated 1987).

Conditions: in vivo

oxidized starch
stimulation of the intestinal wall: side-reaction of stimulating the intestinal wall
